Source: patent publication US20050137121A1, “Inhibition of invasive remodelling” (priority 1996, published 2005)
Where “and” joins values, the source holds several entries; their conditions need not be identical. Equal values may be shown once. Read-outs that look alike come from different tables or passages of the source. Marks after values point to notes of the source that are not given here.

Key:
mouse uPA = assay: Mouse specific uPA ELISA of xenograft tumour homogenates; assay type: in vivo; conditions: versus tumours from mock-treated animals, 125 mg/kg BB-94 daily
From the text: Tumours from untreated control mice and from mice receiving BB94 were homogenized and assayed for mouse uPA content using a mouse specific uPA ELISA.

plg^+/+ mice [1] = conditions: 2.5 mg i.p. daily, 5 mice
plg^+/+ mice [2] = conditions: Galardin 2.5 mg, aprotinin 13,000 KIU and tranexamic acid 10 mg per day i.p.
From the text: In the evening, wild-type (plg^+/+) female mice were placed together with plg^+/+ male mice of proven potency. Bach morning the females were closely examined for the characteristic vaginal “plugs” formed after mating, and the mated females were removed and allocated to four groups.

plg^−/− mice [3] = assay: Wound healing, 20 mm full thickness skin incision; assay type: in vivo, mouse; conditions: Galardin 2.5 mg i.p. once daily
From the text: The methods used followed those described by Rømer et al, 1996. Four groups of mice were set up, consisting of 12 plg^−/− mice (group 1), another 12 plg^−/− mice (group 2), 12 plg^+/+ mice (group 3) and another 12 plg^+/+ mice (group 4). All mice were then wounded with a standardised 20 mm long, full thickness skin incision on the back.
(§1) Each day after wounding the length of the open wounds was carefully measured and recorded. The time taken for each skin wound to completely close was also noted.

[4] = tested on: gelatinase B, collagenase-3, stromelysin-1, gelatinase A mRNA; assay: MMP mRNA expression in wound tissue by in situ hybridization; assay type: in vivo, mouse; conditions: wild-type and Plg-deficient mice, 100 mg/kg daily, versus mock treated
Method: In parallel experiments, the mice were sacrificed and tissue sections prepared from the wound site. The tissue sections were analyzed for expression of various metalloproteases by in situ hybridisation and for matrix content by staining.
In situ hybridization. […] The mouse macrophage elastase expression system was investigated with a single probe, while the expression of all other metalloproteases were investigated with two different non-overlapping probes, which in all cases gave identical results.

plg^−/− mice [5] = tested on: plg^−/− mice
From the text: In the evening, female plg^−/− mice (8-10 weeks old) were placed in cages together with male plg^−/− mice of proven potency.

[6] = biological target: angiotensin converting enzyme (ACE) (Homo sapiens, UniProt P12821); conditions: very weak inhibition; a million-fold higher than for the metalloproteases; cited from earlier work
Chain of angiotensin converting enzyme (ACE) (P12821 30-1306, species assumed): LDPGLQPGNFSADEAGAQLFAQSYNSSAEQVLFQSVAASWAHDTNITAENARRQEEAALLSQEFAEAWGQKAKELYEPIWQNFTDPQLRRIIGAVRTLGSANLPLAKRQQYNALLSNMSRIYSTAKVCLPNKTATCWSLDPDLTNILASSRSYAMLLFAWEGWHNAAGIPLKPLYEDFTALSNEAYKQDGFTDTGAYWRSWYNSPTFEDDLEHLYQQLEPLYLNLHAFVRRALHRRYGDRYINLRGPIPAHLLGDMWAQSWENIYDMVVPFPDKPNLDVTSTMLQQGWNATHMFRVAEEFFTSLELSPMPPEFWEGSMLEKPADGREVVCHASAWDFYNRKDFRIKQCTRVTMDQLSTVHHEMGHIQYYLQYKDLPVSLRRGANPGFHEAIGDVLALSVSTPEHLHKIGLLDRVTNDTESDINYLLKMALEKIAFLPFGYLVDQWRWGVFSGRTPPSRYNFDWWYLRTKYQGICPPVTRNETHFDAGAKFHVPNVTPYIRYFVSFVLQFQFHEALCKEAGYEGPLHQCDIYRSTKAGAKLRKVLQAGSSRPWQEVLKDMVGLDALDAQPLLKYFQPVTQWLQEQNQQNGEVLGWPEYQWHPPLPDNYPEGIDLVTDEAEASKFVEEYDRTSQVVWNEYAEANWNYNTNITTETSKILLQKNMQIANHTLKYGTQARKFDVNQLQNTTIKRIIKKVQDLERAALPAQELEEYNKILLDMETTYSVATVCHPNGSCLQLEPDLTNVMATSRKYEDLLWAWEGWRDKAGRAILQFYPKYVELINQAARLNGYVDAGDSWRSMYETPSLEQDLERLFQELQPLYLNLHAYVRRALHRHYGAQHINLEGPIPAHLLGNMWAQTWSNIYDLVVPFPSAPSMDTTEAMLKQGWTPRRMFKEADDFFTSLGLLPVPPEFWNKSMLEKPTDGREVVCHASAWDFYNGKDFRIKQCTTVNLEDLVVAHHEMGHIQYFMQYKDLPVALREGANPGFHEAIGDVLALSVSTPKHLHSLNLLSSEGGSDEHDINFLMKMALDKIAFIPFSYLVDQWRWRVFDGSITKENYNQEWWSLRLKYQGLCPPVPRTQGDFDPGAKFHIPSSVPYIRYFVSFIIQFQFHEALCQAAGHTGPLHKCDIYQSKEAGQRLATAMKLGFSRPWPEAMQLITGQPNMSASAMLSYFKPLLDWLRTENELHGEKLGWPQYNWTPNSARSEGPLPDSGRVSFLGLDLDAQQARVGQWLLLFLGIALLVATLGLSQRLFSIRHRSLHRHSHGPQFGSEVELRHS

stromelysin-1 (MMP-3) = stromelysin-1 (MMP-3) (Homo sapiens, UniProt P08254); conditions: cited from earlier work
Chain of stromelysin-1 (MMP-3) (P08254 100-477, species assumed): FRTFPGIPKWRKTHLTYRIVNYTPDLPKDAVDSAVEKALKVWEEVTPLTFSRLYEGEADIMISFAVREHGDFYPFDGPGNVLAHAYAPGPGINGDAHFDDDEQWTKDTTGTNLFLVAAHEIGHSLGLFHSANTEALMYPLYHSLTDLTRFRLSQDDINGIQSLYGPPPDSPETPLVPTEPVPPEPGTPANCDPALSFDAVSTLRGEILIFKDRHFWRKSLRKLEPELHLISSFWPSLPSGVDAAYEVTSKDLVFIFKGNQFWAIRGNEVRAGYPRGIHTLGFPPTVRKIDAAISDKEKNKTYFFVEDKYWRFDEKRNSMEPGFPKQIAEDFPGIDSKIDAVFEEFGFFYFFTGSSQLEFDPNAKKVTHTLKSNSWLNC

Lewis lung carcinoma = tested on: Lewis lung carcinoma
Method: Four groups of 17 mice were injected subcutaneously with Lewis lung carcinoma tissue mince (approx. 1.0×10^6 cells). The first group (CON) were treated only with buffered vehicle. The second group (TA/AP) was treated i.p. three times each day with a mixture of tranexamic acid (TA) and aprotinin (AP), so that the total dosage was 10 mg TA and 13,000 KIU AP per day per mouse. […] The tumour growth in the mice was monitored every 2-3 days by careful measurement with callipers of the longest and shortest axes of the palpable tumours, and the calculated volume was plotted as a function of time. The growth rate of the tumours was followed until death and the survival of mice in the four groups was analyzed by a Kaplan-Meier plot. Histological sections from the primary murine Lewis Lung carcinoma were analyzed by in situ hybridization for the expression of stromelysin-1 and gelatinase-B.

plg^−/− mice [7] = assay: Post-lactational mammary gland involution (gland weight); assay type: in vivo, mouse
From the text: (§2) After mice had given birth, the litter was taken away from the mother and adjusted to eight pups, adding pups from other mothers if necessary in order to provide a constant feeding load on each mother. Lactation and feeding with the eight pups were allowed to proceed for 7-8 days, at which time the litter was removed (day 1).

plg^+/+ mice [8] = assay: as above; assay type: in vivo, mouse
From the text: as §2

plg^+/+ mice [9] = assay: Wound healing, 20 mm full thickness skin incision; assay type: in vivo, mouse; conditions: for time after which all wounds were healed: aprotinin 13,000 KIU and/or tranexamic acid 10 mg per day in three i.p. injections, untreated 17 days
From the text: Four groups of mice were set up, consisting of 12 plg^−/− mice (group 1), another 12 plg^−/− mice (group 2), 12 plg^+/+ mice (group 3) and another 12 plg^+/+ mice (group 4). All mice were then wounded with a standardised 20 mm long, full thickness skin incision on the back.
as §1
(§3) The time taken for each skin wound to completely close was also noted.
as §3, §3

plasmin = plasmin (Homo sapiens, UniProt P00747); conditions: very weak inhibition; a million-fold higher than for the metalloproteases; cited from earlier work
Chain of plasmin (P00747 581-810 limits assumed, species assumed): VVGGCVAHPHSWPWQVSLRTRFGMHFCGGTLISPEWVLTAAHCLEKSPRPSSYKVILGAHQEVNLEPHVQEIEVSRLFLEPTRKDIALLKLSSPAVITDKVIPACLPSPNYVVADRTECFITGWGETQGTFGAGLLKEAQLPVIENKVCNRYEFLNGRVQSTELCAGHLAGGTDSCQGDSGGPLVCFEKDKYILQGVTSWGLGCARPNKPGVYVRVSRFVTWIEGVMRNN
Chain of plasmin (P00747 97-580 partner limits assumed, species assumed): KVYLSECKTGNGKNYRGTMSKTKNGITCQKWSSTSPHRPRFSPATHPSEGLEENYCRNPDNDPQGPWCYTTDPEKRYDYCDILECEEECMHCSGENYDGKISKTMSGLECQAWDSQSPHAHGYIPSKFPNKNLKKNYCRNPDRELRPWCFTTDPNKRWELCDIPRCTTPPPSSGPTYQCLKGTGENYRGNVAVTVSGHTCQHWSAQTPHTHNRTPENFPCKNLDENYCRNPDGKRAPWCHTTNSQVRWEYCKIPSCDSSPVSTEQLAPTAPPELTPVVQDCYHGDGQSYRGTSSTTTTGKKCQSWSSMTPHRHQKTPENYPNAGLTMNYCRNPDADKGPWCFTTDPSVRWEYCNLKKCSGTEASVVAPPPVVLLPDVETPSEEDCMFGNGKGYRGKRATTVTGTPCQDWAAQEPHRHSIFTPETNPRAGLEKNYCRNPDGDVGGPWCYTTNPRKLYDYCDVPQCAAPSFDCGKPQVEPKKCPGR

plg^−/− mice [10] = assay: Post-partum uterine involution (uterus weight); assay type: in vivo, mouse
From the text: (§4) Treatment was continued to 4 days post-partum and on the fifth day post-partum the mice were sacrificed and the uteri removed, dissected free of adhering fatty tissue, and blotted dry before weighing.

plg^+/+ mice [11] = assay: Post-partum uterine involution (uterus weight); assay type: in vivo, mouse
From the text: as §4

wild-type mice = assay: Keratinocyte migration distance in skin wounds (morphometry); assay type: in vivo, mouse; conditions: 100 mg/kg daily for 7 days after skin wounding
Method: (§5) Keratinocyte migration. […] 18-20 sections of wound tissue from each group of mice were then analyzed microscopically, and the keratinocyte migration distance along the base of the epidermal outgrowth from the wound edge to the tip of the wedge (see Rømer et al., FIG. 2) was measured blindly by computer-assisted morphometry.

Plg-deficient mice = assay: as above; assay type: in vivo, mouse; conditions: 100 mg/kg daily for 7 days after skin wounding
Method: as §5

[12] = Biological half-life of aprotinin in blood plasma; assay type: in vivo, mouse; conditions: single i.p. injection of 2.1 mg
Method: Fifteen mice (weighing approx. 25 g each) were injected i.p. with 0.75 ml of aprotinin solution (20,000 KIU/ml; approx. 2.1 mg) and at time intervals of 0.5, 1.5, 3.0, 6.0 and 24 h thereafter three mice were sacrificed and blood collected by cardiac puncture into citrate anti-coagulant tubes. Each plasma sample was ultrafiltrated through a 20,000 MW cut-off membrane, and the aprotinin level in the ultrafiltrate was determined by inhibition of the calorimetric activity of a standard trypsin solution.

[13] = 2.5 mg/mouse i.p. daily from weaning day 2, weighed day 5, single animals
[14] = 2.5 mg/mouse i.p. daily, weaning day 5

With CNC(=O)[C@H](Cc1ccccc1)NC(=O)[C@H](CC(C)C)[C@H](CSc1cccs1)C(=O)NO [BB-94, Batimastat] the “upregulation of mouse uPA in the tumours” value (mouse uPA) was roughly 2 fold.

In the case of CNC(=O)[C@H](Cc1c[nH]c2ccccc12)NC(=O)[C@@H](CC(=O)NO)CC(C)C [Galardin™], the Pregnancies (plg^+/+ mice [1]) is reported as 3, the production of offspring (plg^+/+ mice [2]) is reported as “unaffected” and the “healed wounds 38 days after wounding” value (plg^−/− mice [3]) is reported as “none”. The “healed wounds after 80 days” value (plg^−/− mice [3]) was “none”, the “expression of gelatinase A and stromelysin-3 mRNA in granulation tissue fibroblasts” value [4] was “upregulated” and the “expression of gelatinase B, collagenase-3 and stromelysin-1 mRNA in leading-edge keratinocytes” value [4] was “dramatically upregulated”. For the same compound, the “% pregnant” value (plg^−/− mice [5]; 2.5 mg i.p. daily day 3.5 to 18.5) was 25%, the Pregnancies (plg^−/− mice [5]; 2.5 mg i.p. daily day 3.5 to 18.5, 4 mice) was 1* and the “% pregnant” value (plg^−/− mice [5]; 2.5 mg i.p. daily day 3.5 to 18.5, listed as G) was 25* %. The Ki [6] was “in the millimolar range”, the Ki (stromelysin-1 (MMP-3)) was 0.03 µM and the “survival of the tumour-bearing mice” value (Lewis lung carcinoma; 10 mg TA and 13,000 KIU AP per day i.p., 1.8 mg Galardin per day per mouse) was “considerable prolongation”. The “long-term survival (mice per group of 17)” value (Lewis lung carcinoma; treatment stopped day 50) was “no long-term survivors”, the “Gland 4 Weight” value (plg^−/− mice [7]; [13]) was 262 mg and 342 mg and 251 mg and the “Mean Weight (gland 4)” value (plg^−/− mice [7]; [14]) was 285 mg. The “% Control (gland weight)” value (plg^−/− mice [7]; control = plg^+/+ untreated) was 262%, the “Gland 4 Weight” value (plg^+/+ mice [8]; [13]) was 188 mg and 198 mg and 146 mg and the “Mean Weight (gland 4)” value (plg^+/+ mice [8]; [14]) was 177 mg. The “% Control (gland weight)” value (plg^+/+ mice [8]; control = plg^+/+ untreated) was 162%, the “wounds healed after 38 days” value (plg^+/+ mice [9]; Galardin 2.5 mg i.p. once daily) was 22% and the Ki (plasmin) was “in the millimolar range”. For the same compound, the “change in 5 day postpartum uterine weight versus control” value (plg^−/− mice [10]; Plg^−/− mice, 90 mg/kg, p=0.012) was “significant increase”, the “Mean Weight ± SD (uterus)” value (plg^−/− mice [10]; plg^−/− mice, 90 mg/kg i.p. daily, fifth day post-partum) was 337 ± 70.9 mg and the “Weight (uterus)” value (plg^−/− mice [10]; plg^−/− mice, 90 mg/kg i.p. daily, fifth day post-partum, single animals, 90 mg/kg) was 311 mg and 408 mg and 236 mg and 328 mg and 401 mg. For the same compound, the “Mean Weight ± SD (uterus)” value (plg^+/+ mice [11]; 90 mg/kg i.p. daily, fifth day post-partum) was 221 ± 65.3 mg, the “Weight (uterus)” value (plg^+/+ mice [11]; 90 mg/kg i.p. daily, fifth day post-partum, single animals, 90 mg/kg) was 288 mg and 285 mg and 135 mg and 206 mg and 192 mg and the “change in 5 day postpartum uterine weight versus control” value (plg^+/+ mice [11]; 90 mg/kg, p=0.158) was “did not produce a significant increase”. For the same compound, the “keratinocyte migration distance (mean value±standard deviation)” value (wild-type mice) was 268±80 arbitrary units and the “keratinocyte migration distance (mean value±standard deviation)” value (Plg-deficient mice) was 208±60 arbitrary units.

With NC[C@H]1CC[C@H](C(=O)O)CC1 [tranexamic acid] the “time after which all wounds were healed” value (plg^+/+ mice [9]) was 17 days.

In the case of aprotinin, the half life ([12]; mouse plasma) is reported as “approx. 3 h”, the plasma level ([12]; mouse) is reported as “approx. 25 μg/ml” and the “time after which all wounds were healed” value (plg^+/+ mice [9]) is reported as 24 days.
